Data reported in patent US20060183716A1, “2-Methylene-19-nor-(20S-24S)-1alpha,25-dihydroxyvitamin D2” (Wisconsin Alumni Research Foundation, priority 2005, published 2006).

Key:
[1] = tested on: cell differentiation; conditions: as described in the '352, '861 and '622 patents; cited from earlier work
[2] = molecular target: T1, vitamin D receptors (Homo sapiens, UniProt P11473); conditions: as described in the '352, '861 and '622 patents; cited from earlier work
T1 sequence (P11473 1-427): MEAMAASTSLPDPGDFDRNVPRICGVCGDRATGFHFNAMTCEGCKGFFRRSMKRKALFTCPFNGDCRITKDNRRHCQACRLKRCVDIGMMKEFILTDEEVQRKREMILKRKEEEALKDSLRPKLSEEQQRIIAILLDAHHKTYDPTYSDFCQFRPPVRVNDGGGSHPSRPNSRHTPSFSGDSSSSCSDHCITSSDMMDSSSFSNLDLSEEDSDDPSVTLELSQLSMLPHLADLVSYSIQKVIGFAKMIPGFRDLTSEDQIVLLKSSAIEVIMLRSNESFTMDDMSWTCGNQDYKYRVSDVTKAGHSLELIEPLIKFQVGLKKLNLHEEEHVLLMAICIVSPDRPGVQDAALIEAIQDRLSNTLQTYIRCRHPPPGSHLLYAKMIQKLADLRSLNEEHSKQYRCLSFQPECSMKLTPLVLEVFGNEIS

[3] = tested on: calcemic activity; conditions: as described in the '352, '861 and '622 patents; cited from earlier work
[4] = tested on: Human promyelocytic leukemia (HL60) cells; test: HL-60 cell differentiation (nitro blue tetrazolium reduction); assay type: cell-based; conditions: compared with 1,25(OH)2D3; four days; FIG. 2
Description: FIG. 2 is a graph comparing the percent HL-60 cell differentiation as a function of the concentration of (20S/24S) 2-MD2 with that of 1,25(OH)2D3.
The study drugs were dissolved in ethanol and the concentrations determined using UV spectrophotometry. Serial dilutions were prepared so that a range of drug concentrations could be tested without changing the final concentration of ethanol (≦0.2%) present in the cell cultures.
Human promyelocytic leukemia (HL60) cells were grown in RPMI-1640 medium containing 10% fetal bovine serum. The cells were incubated at 37° C. in the presence of 5% CO2.
HL60 cells were plated at 1.2×10^5 cells/ml. Eighteen hours after plating, cells in duplicate were treated with drug. Four days later, the cells were harvested and a nitro blue tetrazolium reduction assay was performed (Collins et al., 1979; J. Exp. Med. 149:969-974). The percentage of differentiated cells was determined by counting a total of 200 cells and recording the number that contained intracellular black-blue formazan deposits. Verification of differentiation to monocytic cells was determined by measuring phagocytic activity (data not shown).

[5] = molecular target: T2, full-length recombinant rat vitamin D receptor (Rattus norvegicus, UniProt P13053); test: Vitamin D receptor competitive binding with [3H]-1,25-(OH)2-D3; conditions: competition with [3H]-1,25-(OH)2-D3; compared with 1,25(OH)2D3; FIG. 1
T2 construct: Full-length recombinant rat receptor was expressed in E. coli BL21(DE3) Codon Plus RIL cells; histidine tag (C); made in house; host or cells: E. coli BL21(DE3) Codon Plus RIL
T2 sequence (P13053 1-423): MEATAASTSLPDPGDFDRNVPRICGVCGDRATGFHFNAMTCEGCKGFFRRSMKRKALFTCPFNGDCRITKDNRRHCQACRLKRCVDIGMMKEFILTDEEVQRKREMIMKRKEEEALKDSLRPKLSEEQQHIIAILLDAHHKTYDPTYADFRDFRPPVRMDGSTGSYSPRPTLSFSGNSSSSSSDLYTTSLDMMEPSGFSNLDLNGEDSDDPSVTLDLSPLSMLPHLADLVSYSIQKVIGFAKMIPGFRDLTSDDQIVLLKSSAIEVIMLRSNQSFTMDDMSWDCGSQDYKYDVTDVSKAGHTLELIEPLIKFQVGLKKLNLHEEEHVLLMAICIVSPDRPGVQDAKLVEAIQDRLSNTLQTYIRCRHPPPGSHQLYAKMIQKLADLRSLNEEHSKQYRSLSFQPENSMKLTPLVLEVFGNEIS
From the text: FIG. 1 is a graph comparing the relative activity of (20S/24S) 2-MD2 and 1,25(OH)2D3 to compete for binding with [^3H]-1,25-(OH)2-D3 to the full-length recombinant rat vitamin D receptor.
Full-length recombinant rat receptor was expressed in E. coli BL21(DE3) Codon Plus RIL cells and purified to homogeneity using two different column chromatography systems. The first system was a nickel affinity resin that utilizes the C-terminal histidine tag on this protein. The protein that was eluted from this resin was further purified using ion exchange chromatography (S-Sepharose Fast Flow). Aliquots of the purified protein were quick frozen in liquid nitrogen and stored at −80° C. until use. For use in binding assays, the protein was diluted in TEDK50 (50 mM Tris, 1.5 mM EDTA, pH 7.4, 5 mM DTT, 150 mM KCl) with 0.1% Chaps detergent. […]
Unlabeled ligands were dissolved in ethanol and the concentrations determined using UV spectrophotometry (1,25(OH)2D3:molar extinction coefficient=18,200 and λmax=265 nm; Analogs: molar extinction coefficient=42,000 and λmax=252 nm). […]
Radiolabeled and unlabeled ligands were added to 100 mcl of the diluted protein at a final ethanol concentration of ≦10%, mixed and incubated overnight on ice to reach binding equilibrium. […] Total binding was determined from the tubes containing only radiolabeled ligand.

[6] = tested on: intestinal calcium transport; test: Intestinal calcium transport (everted gut sac method); assay type: in vivo, Sprague-Dawley rats; conditions: rats on 0.02% Ca diet, four consecutive ip doses, FIG. 5
From the text: (§1) FIG. 5 is a bar graph comparing the intestinal calcium transport activity of (20S/24S) 2-MD2 with that of 1,25(OH)2D3. Male, weanling Sprague-Dawley rats were placed on Diet 11 (0.47% Ca) diet +AEK for one week followed by Diet 11 (0.02% Ca) +AEK for 3 weeks. The rats were then switched to a diet containing 0.47% Ca for one week followed by two weeks on a diet containing 0.02% Ca. Dose administration began during the last week on 0.02% calcium diet. Four consecutive ip doses were given approximately 24 hours apart. Twenty-four hours after the last dose, blood was collected from the severed neck and the concentration of serum calcium determined as a measure of bone calcium mobilization. The first 10 cm of the intestine was also collected for intestinal calcium transport analysis using the everted gut sac method.

[7] = tested on: bone calcium mobilization; test: Bone calcium mobilization (serum calcium); assay type: in vivo, Sprague-Dawley rats; conditions: rats on 0.02% Ca diet, four consecutive ip doses; compared with 1,25(OH)2D3; FIG. 4
From the text: as §1, with “FIG. 4 is a” for “FIG. 5 is a”, “comparing the bone calcium mobilization” for “comparing the intestinal calcium transport”, “bone calcium mobilization activity of” for “intestinal calcium transport activity of”

[8] = tested on: 24-hydroxylase (24Ohase) gene promoter in ROS 17/2.8 (bone) cells; test: In vitro transcription assay (24-hydroxylase promoter luciferase reporter); assay type: cell-based; conditions: ROS 17/2.8 cells, sixteen hours after dosing, FIG. 3
Description: FIG. 3 is a graph comparing the in vitro transcription activity of (20S/24S) 2-MD2 with that of 1,25(OH)2D3.
Transcription activity was, measured in ROS 17/2.8 (bone) cells that were stably transfected with a 24-hydroxylase (24Ohase) gene promoter upstream of a luciferase reporter gene (Arbour et al., 1998). Cells were given a range of doses. Sixteen hours after dosing the cells were harvested and luciferase activities were measured using a luminometer. RLU=relative luciferase units.

| binding to the vitamin D receptor relative to native hormone [5] | Molecule | cell differentiation activity [1] | binding activity to vitamin D receptors [2] | calcemic activity as compared to 1α,25-dihydroxyvitamin D3 [3] | inducing differentiation of HL-60 cells relative to native hormone [4] | intestinal calcium transport [6] | bone calcium mobilizing activity [7] | causing transcription relative to 1,25-(OH)2D3 [8] |
| --- | --- | --- | --- | --- | --- | --- | --- | --- |
| – | 1α-hydroxy-2-methylene-19-nor-(20S)-homopregnacalciferol | relatively high | relatively high | little if any | – | – | – | – |
| – | C=C1[C@H](O)CC(=C/C=C2\CCC[C@]3(C)[C@@H](CC)CC[C@@H]23)C[C@H]1O [1α-Hydroxy-2-methylene-19-nor-pregnacalciferol] | relatively high | relatively high | little if any | – | – | – | – |
| – | 1α-hydroxy-2-methylene-19-nor-bishomopregnacalciferol | relatively high | relatively high | little if any | – | – | – | – |
| almost equal to the native hormone | C=C1[C@H](O)CC(=C/C=C2\CCC[C@]3(C)C([C@@H](C)/C=C/[C@H](C)C(C)(C)O)CC[C@@H]23)C[C@H]1O (stereo in doubt) [2-methylene-19-nor-(20S-24S)-1α,25-dihydroxyvitamin D2] | – | – | – | almost equal to the native hormone | does retain some ability to elevate intestinal calcium transport | comparable to 1,25(OH)2D3 | slightly more effective than 1,25-(OH)2D3 |
